Patent US6984640B1, “Antiparasitic artemisinin derivatives (endoperoxides)” (Bayer Aktiengesellschaft, priority 1998, dated 2006)

What was measured:
[1] = system: Plasmodium falciparum W2 strain (chloroquine resistant); test: In vitro screening against Plasmodium falciparum, 3H-hypoxanthine incorporation, W2 strain; format: cell-based; settings: for In vitro activity: (IC10) / In vitro activity: IC50 / In vitro activity: IC90: 66 hours incubation
Excerpt: (§1) Two parasite strains—W2 resistant to chloroquine, and D6 sensitive to chloroquine but resistant to mefloquine were used. In Table IV below, the best compounds should show no cross resistance between the two strains.
(§2) The assay relies on incorporation of radiolabelled hypoxanthine by the parasite and inhibition of incorporation is attributed to activity of known or candidate antimalarial drugs. For each assay, proven antimalarials such as chloroquine, mefloquine, quinine, artemisinin and pyrimethamine were used as controls. The incubation period was 66 hours, and the starting parasitemia was 0.2% with 1% hematocrit. The medium was an RPMI-1640 culture with no folate or p-aminobenzoic acid. Albumax rather than 10% normal heat inactivated human plasma was used as, with Albumax, less protein binding is observed, and compounds elicit slightly higher activities in this model. If a compound was submitted with no prior knowledge of activity, it was dissolved directly in dimethyl sulphoxide (DMSO), and diluted 400 fold with complete culture medium. The unknown compound was started at a maximum concentration of 50,000 ng ml^−1 and sequentially diluted 2-fold for 11 times to give a concentration range of […]. These dilutions were performed automatically by a Biomek 1000 Liquid Handling System in 96-well microtiter plates. The diluted drugs were then transferred to test plates, 200 μl of parasitized erythrocytes were added, and incubated at 37° C. in a controlled environment of 5% CO2, 5% O2 and 90% N2. After 42 hours, 25 μl of ^3H-hypoxanthine was added, and the plates incubated for an additional 24 hours. After 66 hours, the plates were frozen at −70° C. to lyse the red cells, and then thawed and harvested onto glass fiber filter mats in a 96-well harvester. The filter mats were then counted in a scintillation counter. For each drug, the concentration response profile was determined and 50%, 90% and 10% inhibitory concentrations (IC50 IC90 and IC10) were determined by a non-linear logistic dose response analysis program.
(§3) A prescreen format can be used wherein a 3-dilution assay may be used to determine activity at high medium or low concentrations. The concentrations were selected as 50,000, 500 and 50 ng ml^−1. These were performed in duplicate on a 96-well format plate with 14 test compounds and one known (standard) compound per plate. The system was automated with a Biomek diluter for mixing and diluting the drugs, and adding drugs and parasites to a test plate. In the prescreen format, if the ANALYSIS FIELD (AP) has a “<”, then the compound was “very active” and the IC values are most likely to be below the last dilution value (in nanograms/ml), which is listed next to AF. In most cases, these compounds were run again at lower starting concentration to determine the true IC value. If the AF has a “>”, then the IC value is greater than the prescreen dilution value; thus “AF>250” means that the IC value is greater than 250 ng ml^−1 and no further screening is carried out. In such cases, values of 0.00 are entered for IC values.

[2] = system: Plasmodium falciparum D6 strain (chloroquine sensitive); test: In vitro screening against Plasmodium falciparum, 3H-hypoxanthine incorporation, D6 strain; format: cell-based; settings: for In vitro activity: (IC10) / In vitro activity: IC50 / In vitro activity: IC90: 66 hours incubation
Excerpt: as §1, §2, §3

[3] = system: Neospora caninum; test: Screening against Neospora caninum cell cultures in vitro (VERO or ED host cells); format: cell-based; parameters: key: 0 = no effect monolayer completely destroyed; 1 = weak effect monolayer partly destroyed, parasite clumps can be seen; 2 = full effect monolayer intact, no tachyzoites observable; T = cytotoxic cells are dead, lysed; settings: microscopic evaluation 4 days after treatment
Experimental: Screening was conducted in 96-well plates (Falcon 3872). A monolayer of host cells (VERO or ED) were placed on a cell culture plate. Non-infected mono-layers of cells were cultured in two 50 ml tissue culture bottles ([…] cell culture area). The cell layer was detached with trypsin-EDTA (5 ml. Gibco 45300-019) in a CO2-culture cupboard at 37° C. After 10 minutes, most of the cells were detached. The cells were transferred with a 5 ml pipette into a 50 ml centrifuge tube (Greiner, B769331) containing about 1 ml warmed fetal calf serum. After centrifugation for 5 minutes at 1500 rpm (Varifuge 3.0, Heraeus), the liquid was removed and the cell pellet suspended in RPMI medium (100 ml, 95% RPMI 1640, 2% FCS, 1% L-glutamine, 1% sodium hydrogen carbonate, 1% penicillin/streptomycin). The cell suspension was pipetted into six 96-well plates at 150 μl per well. The coated cell culture plates were placed in an incubation cupboard at 37° C. under 5% CO2 for 24 hours. The cells were then infected with Neospora caninum tachyzoites at a concentration of 48,000 tachyzoites per well. This was followed by incubation at 37° C. under 5% CO2 for 24 hours.
The test compounds (0.5-1.5 mg) were weighed into 1.5 ml eppendorf vessels and dissolved in 1 ml dimethyl sulphoxide, corresponding to a dilution of about 1×10^−3 g ml^−1. The medium used for further dilution consisted of 87% RPMI 1640, 10% FCS, 1% L-glutamine, 1% sodium hydrogen carbonate, 1% penicillin/streptomycin. In the first screening, concentrations of […], […] and 10^−7 g ml^−1 were used. The diluted preparations were then transferred to the cell culture plates at a volume of 150 μl per well after 24 hour infection with Neospora caninum. For the first row, untreated medium was used; this row contained infected and uninfected cells as controls. The cell plate was incubated at 37° C. under 5% CO2 for 5 days. Microscopic evaluation was conducted 4 days after treatment and 5 days after infection at a magnification of 25×10 in an inverse microscope according to the following evaluation scheme.

[4] = system: Eimeria tenella; test: Screening against Eimeria tenella cell cultures in vitro (chick kidney cells); format: cell-based; parameters: key: 3 = very active no intact parasites/well; 2 = active 1-6 parasites per well; 1 = weakly active up to 1 intact schizont/optical field of vision; 0 = inactive >1 intact schizont/optical field of vision; T = cytotoxic host cells are dead; settings: day 5 post infection
Experimental: Cells from kidneys of 19 day old chicks are cultured as monolayers in 96-well plates (Falcon 3872) in a medium of Hanks lactalbumine hydrolysate, 5% fetal calf serum, 1% glutamine and 1% non-essential amino acids. After two days at 42° C. under 5% CO2, the culture was infected with excised sporozoites of Eimeria tenella at about […] per well. Test compounds were dissolved in DKSO and diluted with culture medium to a maximum end concentration of 10 μg ml^−1. The dilution steps were 1:10. On day 5 post infection, the cultures were evaluated under a microscope at 100-fold magnification and the condition of the host cells and the amount of intact schizonts and free merozoites was determined.

[5] = system: Neospora; settings: administered via drinking water; cited from earlier work
[6] = prescreen 3-dilution assay, 0.00 entered for IC values

Compound	In vitro activity: (IC10) [1]	In vitro activity: IC50 [1]	In vitro activity: IC90 [1]	In vitro activity: (IC10) [2]	In vitro activity: IC50 [2]	In vitro activity: IC90 [2]	Evaluation of effect against Neospora caninum ([3]; Dose 10^−5 g/ml)	Evaluation of effect against Neospora caninum ([3]; Dose 10^−6 g/ml)	Evaluation of effect against Neospora caninum ([3]; Dose 10^−7 g/ml)	Effectiveness rating against Eimeria tenella ([4]; Dose 10^−5 g/ml)	Effectiveness rating against Eimeria tenella ([4]; Dose 10^−6 g/ml)	Effectiveness rating against Eimeria tenella ([4]; Dose 10^−7 g/ml)	Effectiveness rating against Eimeria tenella ([4]; Dose 10^−8 g/ml)	Evaluation of effect against Neospora caninum ([3]; Dose 10^−8 g/ml)	ANALYSIS FIELD (AF): bound on the IC values in prescreen format [1, 6]	ANALYSIS FIELD (AF): bound on the IC values in prescreen format [2, 6]	efficacy against neosporosis in experimentally infected mice [5]
CC1CCC2C(C)C(Nc3ccc(Br)cc3)OC3OC4(C)CCC1C32OO4 (stereo not drawn) [Example 18]	0.17 ng/mL	0.23 ng/mL	0.33 ng/mL	0.09 ng/mL	0.28 ng/mL	0.82 ng/mL	2	1	0	T	T	1 (1 = weakly active up to 1 intact schizont/optical field of vision)	0 (0 = inactive >1 intact schizont/optical field of vision)				
CC1CCC2C(C)C(Nc3ccc(I)cc3)OC3OC4(C)CCC1C32OO4 (stereo not drawn) [Example 19]	0.25 ng/mL	0.33 ng/mL	0.43 ng/mL	0.19 ng/mL	0.39 ng/mL	0.80 ng/mL	T	0		T	T	1 (1 = weakly active up to 1 intact schizont/optical field of vision)	0 (0 = inactive >1 intact schizont/optical field of vision)				
CC1CCC2C(C)C(Nc3ccc(-c4ccccc4)cc3)OC3OC4(C)CCC1C32OO4 (stereo not drawn) [Example 20]	2.64 ng/mL	5.81 ng/mL	12.77 ng/mL	6.84 ng/mL	9.40 ng/mL	12.93 ng/mL		1	1	T		0 (0 = inactive >1 intact schizont/optical field of vision)		0			
CC1CCC2C(C)C(NCc3cc(C(F)(F)F)cc(C(F)(F)F)c3)OC3OC4(C)CCC1C32OO4 (stereo not drawn) [Example 23]								0		T		0 (0 = inactive >1 intact schizont/optical field of vision)			0.00; 0.00; AF > 250 ng/ml	0.00; 0.00; AF > 250 ng/ml	
CCCNC1OC2OC3(C)CCC4C(C)CCC(C1C)C24OO3 (stereo not drawn) [Example 24]	0.46 ng/mL	0.77 ng/mL	1.30 ng/mL	0.65 ng/mL	1.17 ng/mL	2.10 ng/mL	1	0		2 (2 = active 1-6 parasites per well)	1 (1 = weakly active up to 1 intact schizont/optical field of vision)	0 (0 = inactive >1 intact schizont/optical field of vision)					
CC1CCC2C(C)C(N3CCOCC3)OC3OC4(C)CCC1C32OO4 (stereo not drawn) [Example 25]	0.07 ng/mL	0.11 ng/mL	0.17 ng/mL	0.02 ng/mL	0.09 ng/mL	0.35 ng/mL		1	1	2 (2 = active 1-6 parasites per well)	1 (1 = weakly active up to 1 intact schizont/optical field of vision)	1 (1 = weakly active up to 1 intact schizont/optical field of vision)	0 (0 = inactive >1 intact schizont/optical field of vision)	0			
Nc1ccc(S(=O)(=O)Nc2ncccn2)cc1 [Sulfadiazin]																	effective in experimentally infected mice, only if the treatment was prophylactic
